# Data taken from patent US9890147B2 (BAYER PHARMA AKTIENGESELLSCHAFT, priority 2012, dated 2018).
# Experiments:
# [1] = target: T1, BRD4 (BD1) (Homo sapiens, UniProt O60885); assay: Binding assay BRD4/acetylated peptide H4 (TR-FRET protein-protein interaction assay)
# T1 construct: with relatively long constructs also being possible, preferably amino acids 44-168; made in house; host or cells: E. coli
# How it was run: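 His6-BRD4 BD1 (aa 67-152, E. coli), usually 10 nM, with biotinylated tetra-acetylated H4 peptide in HEPES pH 7.5 buffer; 11 compound concentrations 0.1 nM–20 μM in duplicate, 10 min preincubation, 1 h at 22 °C then ≥3 h at 4 °C. TR-FRET 665/620 ratio; IC50 by 4-parameter fit.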
# [2] = tested on: MOLM-13 cells; assay: Cell proliferation assay (alamarBlue), MOLM-13; type: cell-based; settings: 96 hours incubation, inhibition of cell proliferation
# Method: In accordance with the invention, the capability of the substances to inhibit cell proliferation was determined Cell viability was determined using the alamarBlue® reagent (Invitrogen) in a Victor X3 Multilabel Reader (Perkin Elmer). The excitation wavelength was 530 nm and the emission wavelenth […].
# The MOLM-13 cells (DSMZ, ACC 554) were sown at a concentration of 4000 cells/well in 100 μl growth medium (RPMI1640, 10% FCS) on 96-well microtitre plates.
# After an overnight incubation at 37° C., the fluorescence values (CI values) were determined. The plates were then treated with various substance dilutions (1E-5 M, 3E-6 M, 1E-6M, 3E-7 M, 1E-7 M, 3E-8 M, 1E-8 M) and incubated at 37° C. for 72 (MV4-11-, LOX-IMVI cells), 96 (MOLM-13-, B16F10-, MDA-MB-431-, Caov-3 cells), 120 (MOLP-8-, KMS-12-PE cells) or 168 (LAPC-4 cells) hours. The fluorescence values (CO values) were then determined. For the data analysis, the CI values were subtracted from the CO values and the results were compared between cells treated with different dilutions of the substance or with buffer solution only. These were used to calculate the IC 50 values (substance concentration required for 50% inhibition of cell proliferation).
IC50 [1],IC50 ([2]; Homo sapiens),IC50 [2],SMILES
60 nM,580 nM,,"CNC(=O)N1N=C(c2ccc(Cl)cc2)c2cc(OCCCN3CCN(C)CC3)ccc2CC1C (racemic) [Example 164, (±)-1-(4-chlorophenyl)-N,4-dimethyl-8-[3-(4-methylpiperazin-1-yl)propoxy]-4,5-dihydro-3H-2,3-benzodiazepine-3-carboxamide]"
3980 nM,> 10000 nM,,"CNC(=O)N1N=C(c2ccc(N3CCC3)cc2)c2cc(OC)c(OC)cc2C[C@H]1C [Example 128.1, (4R)-1-[4-(azetidin-1-yl)phenyl]-7,8-dimethoxy-N,4-dimethyl-4,5-dihydro-3H-2,3-benzodiazepine-3-carboxamide]"
260 nM,1350 nM,,"CNC(=O)N1N=C(c2ccc(N3CC(C)OCC3=O)cc2)c2cc(OC)c(OC)cc2CC1C (racemic) [Example 41, (±)-7,8-dimethoxy-N,4-dimethyl-1-[4-(2-methyl-5-oxomorpholin-4-yl)phenyl]-4,5-dihydro-3H-2,3-benzodiazepine-3-carboxamide]"
80 nM,480 nM,,"CNC(=O)N1N=C(c2ccc(-n3ccc(-c4ccc(F)cc4)n3)cc2)c2cc(OC)c(OC)cc2CC1C (racemic) [Example 150, (±)-1-{4-[3-(4-fluorophenyl)-1H-pyrazol-1-yl]phenyl}-7,8-dimethoxy-N,4-dimethyl-4,5-dihydro-3H-2,3-benzodiazepine-3-carboxamide]"
3190 nM,> 10000 nM,,"CNC(=O)N1N=C(c2ccc(N3CCOCC3)cc2)c2cc(OC)c(OC)cc2C[C@H]1C [Example 7.1, (4R)-7,8-dimethoxy-N,4-dimethyl-1-[4-(morpholin-4-yl)phenyl]-4,5-dihydro-3H-2,3-benzodiazepine-3-carboxamide]"
40 nM,180 nM,,"CNC(=O)N1N=C(c2ccc(N3CCN(C)C(=O)C3)cc2)c2cc(OC)c(OC)cc2C[C@@H]1C [Example 138.1, (4S)-7,8-dimethoxy-N,4-dimethyl-1-[4-(4-methyl-3-oxopiperazin-1-yl)phenyl]-4,5-dihydro-3H-2,3-benzodiazepine-3-carboxamide]"
70 nM,170 nM,,"CNC(=O)N1N=C(c2ccc(N3CCC(C)(NC(=O)OC(C)(C)C)CC3)cc2)c2cc(OC)c(OC)cc2CC1C (racemic) [Example 191, (±)-tert-butyl (1-{4-[7,8-dimethoxy-4-methyl-3-(methylcarbamoyl)-4,5-dihydro-3H-2,3-benzodiazepin-1-yl]phenyl}-4-methylpiperidin-4-yl)carbamate]"
370 nM,190 nM,,"CC[C@H]1Cc2cc(OC)c(OC)cc2C(c2ccc(N3CCOCC3)cc2)=NN1C(=O)NC [Example 209, (4S)-4-ethyl-7,8-dimethoxy-N-methyl-1-[4-(morpholin-4-yl)phenyl]-4,5-dihydro-3H-2,3-benzodiazepine-3-carboxamide]"
190 nM,570 nM,,"CNC(=O)N1N=C(c2ccc(-c3nnc(C)o3)cc2)c2cc(OC)c(OC)cc2CC1C (racemic) [Example 247, (±)-7,8-Dimethoxy-N,4-dimethyl-1-[4-(5-methyl-1,3,4-oxadiazol-2-yl)phenyl]-4,5-dihydro-3H-2,3-benzodiazepine-3-carboxamide]"
60 nM,210 nM,,"CNC(=O)N1N=C(c2ccc(N3CCN(C)CC3)cc2)c2cc(OC)c(OC(F)F)cc2CC1C (racemic) [Example 163, (±)-7-(difluoromethoxy)-8-methoxy-N,4-dimethyl-1-[4-(4-methylpiperazin-1-yl)phenyl]-4,5-dihydro-3H-2,3-benzodiazepine-3-carboxamide]"
490 nM,2400 nM,,"CCC1Cc2cc(OC)c(OC)cc2C(c2ccc(-c3c(C)nn(C)c3C)cc2)=NN1C(=O)NC (racemic) [Example 220, (±)-4-ethyl-7,8-dimethoxy-N-methyl-1-[4-(1,3,5-trimethyl-1H-pyrazol-4-yl)phenyl]-4,5-dihydro-3H-2,3-benzodiazepine-3-carboxamide]"
110 nM,480 nM,,"CNC(=O)N1N=C(c2ccc(-n3ncnc3C)cc2)c2cc(OC)c(OC)cc2CC1C (racemic) [Example 153, (±)-7,8-dimethoxy-N,4-dimethyl-1-[4-(5-methyl-1H-1,2,4-triazol-1-yl)phenyl]-4,5-dihydro-3H-2,3-benzodiazepine-3-carboxamide]"
190 nM,140 nM,,"CNC(=O)N1N=C(c2ccc(-c3nc(C)no3)cc2)c2cc(OC)c(OC)cc2CC1C (racemic) [Example 248, (±)-7,8-Dimethoxy-N,4-dimethyl-1-[4-(3-methyl-1,2,4-oxadiazol-5-yl)phenyl]-4,5-dihydro-3H-2,3-benzodiazepine-3-carboxamide]"
40 nM,300 nM,,"CNC(=O)N1N=C(c2ccc(-c3ccc(NS(C)(=O)=O)cc3)cc2)c2cc(OC)c(OC)cc2CC1C (racemic) [Example 70, (±)-7,8-dimethoxy-N,4-dimethyl-1-{4′-[(methylsulphonyl)amino]biphenyl-4-yl}-4,5-dihydro-3H-2,3-benzodiazepine-3-carboxamide]"
50 nM,450 nM,,"CNC(=O)N1N=C(c2ccc(-c3cccc(C(=O)N4CCCCC4)c3)cc2)c2cc(OC)c(OC)cc2CC1C (racemic) [Example 97, (±)-7,8-dimethoxy-N,4-dimethyl-1-[3′-(piperidin-1-ylcarbonyl)biphenyl-4-yl]-4,5-dihydro-3H-2,3-benzodiazepine-3-carboxamide]"
70 nM,1170 nM,,"CNC(=O)N1N=C(c2ccc(-c3ccccc3NS(C)(=O)=O)cc2)c2cc(OC)c(OC)cc2CC1C (racemic) [Example 68, (±)-7,8-dimethoxy-N,4-dimethyl-1-{2′-[(methylsulphonyl)amino]-biphenyl-4-yl}-4,5-dihydro-3H-2,3-benzodiazepine-3-carboxamide]"
60 nM,1560 nM,,"CNC(=O)N1N=C(c2ccc(-c3ccc(S(C)(=O)=O)cc3)cc2)c2cc(OC)c(OC)cc2CC1C (racemic) [Example 108, (±)-7,8-dimethoxy-N,4-dimethyl-1-[4′-(methylsulphonyl)biphenyl-4-yl]-4,5-dihydro-3H-2,3-benzodiazepine-3-carboxamide]"
12300 nM,9870 nM,,"CNC(=O)N1N=C(c2ccc(-n3ccc(-c4ccc(F)cc4)n3)cc2)c2cc(OC)c(OC)cc2C[C@H]1C [Example 150.2, (4R)-1-{4-[3-(4-fluorophenyl)-1H-pyrazol-1-yl]phenyl}-7,8-dimethoxy-N,4-dimethyl-4,5-dihydro-3H-2,3-benzodiazepine-3-carboxamide]"
70 nM,430 nM,,"CNC(=O)N1N=C(c2ccc(-n3cncn3)cc2)c2cc(OC)c(OC)cc2CC1C (racemic) [Example 152, (±)-7,8-Dimethoxy-N,4-dimethyl-1-[4-(1H-1,2,4-triazol-1-yl)phenyl]-4,5-dihydro-3H-2,3-benzodiazepine-3-carboxamide]"
770 nM,,3310 nM,CNC(=O)N1N=C(c2ccc(Cl)cc2)c2cc(OCCN3CCCC3)ccc2CC1C (centres unmarked) [Example 33]
130 nM,380 nM,,"CNC(=O)N1N=C(c2ccc(-c3c(C)noc3C)cc2)c2cc(OC)c(OC(F)F)cc2CC1C (racemic) [Example 162, (±)-7-(difluoromethoxy)-1-[4-(3,5-dimethylisoxazol-4-yl)phenyl]-8-methoxy-N,4-dimethyl-4,5-dihydro-3H-2,3-benzodiazepine-3-carboxamide]"
20 nM,60 nM,,"CNC(=O)N1N=C(c2ccc(-c3c(C)nn(C)c3C)cc2)c2cc(OC(F)(F)F)ccc2C[C@@H]1C [Example 249.1, (4S)-N,4-dimethyl-8-(trifluoromethoxy)-1-[4-(1,3,5-trimethyl-1H-pyrazol-4-yl)phenyl]-4,5-dihydro-3H-2,3-benzodiazepine-3-carboxamide]"
90 nM,1070 nM,,"CNC(=O)N1N=C(c2ccc(-c3cccnc3C)cc2)c2cc(OC)c(OC)cc2CC1C (racemic) [Example 124, (±)-7,8-dimethoxy-N,4-dimethyl-1-[4-(2-methylpyridin-3-yl)phenyl]-4,5-dihydro-3H-2,3-benzodiazepine-3-carboxamide]"
140 nM,380 nM,,"CNC(=O)N1N=C(c2ccc(-c3cccc(F)c3)cc2)c2cc(OC)c(OC)cc2CC1C (racemic) [Example 89, (±)-1-(3′-fluorobiphenyl-4-yl)-7,8-dimethoxy-N,4-dimethyl-4,5-dihydro-3H-2,3-benzodiazepine-3-carboxamide]"
1620 nM,3000 nM,,"CNC(=O)N1N=C(c2ccc(-n3nc(-c4ccccc4)cc3C(F)(F)F)cc2)c2cc(OC)c(OC)cc2CC1C (racemic) [Example 149, (±)-7,8-dimethoxy-N,4-dimethyl-1-{4-[3-phenyl-5-(trifluoromethyl)-1H-pyrazol-1-yl]phenyl}-4,5-dihydro-3H-2,3-benzodiazepine-3-carboxamide]"
